Several values for one entry are separate records, joined by “and”; a condition that tells them apart may be missing. Equal entries are not always repeated. Entries after “also recorded” stand apart in the source; their conditions may differ. Structures can show the parent of a compound that is named as a salt. Where two headings read alike, the source gives them in different places.
Key:
[1] = test system: lung resistance in hyperresponsive dogs; experiment: Dog model of lung hyper-responsiveness to metacholine; assay type: in vivo; details: 12 hyperresponsive dogs
Protocol: In this model 12 dogs naturally sensitized to the roundworm Ascaris suum were used in a cross-over study design. Four groups of 3 dogs were randomly formed, exposed to the allergen, and each animal was left either untreated or received alternatively, ASM-002 (4 mg/kg 2× day in the food), or prednisone (1 mg/kg 1× day in the food), the most commonly used corticosteroid drug used to treat inflammation in asthma.
Hyper-responsiveness is described as the capacity of the lung to react (to increase lung resistance) to a non-specific external stimuli like metacholine or to allergens A hyper-responsive allergen-sensitized dog (asthmatic) will react to lower concentrations of metacholine compared to a non allergic dog. Similarly, improvement in lung hyper-responsiveness is shown by an increase in metacholine concentrations necessary to induce the same level of lung resistance.
Increasing concentrations of metacholine were administered with or without treatment with ASM-002 or Prednisone™ and lung resistance recorded.

IFN-γ mRNA = details: pulmonary macrophages and lymphocytes from nicotine treated animals, anti-CD3 + IL-2
[2] = test system: SR-induced inflammation in mice; experiment: Short term SR-induced acute lung inflammation in mice, BAL cells; assay type: in vivo
From the text: The Intranasal instillation of Saccharopolyspora rectivirgula (SR) antigens, the causative agent for farmer's lung, to mice, induces a prominent inflammatory response in the lung. Neutrophils are the first inflammatory cells recruited at the site of inflammation.

[3] = test system: Saccharopolyspora rectivirgula (SR) antigen-induced HP in mice; details: IP nicotine 0.5 to 2.0 mg/kg twice a day
[4] = test system: TNF-α mRNA expression in AMJ2-C11 cells; experiment: TNF-α mRNA expression by RT-PCR in AMJ2-C11 cells; assay type: cell-based, mouse
Protocol: (§1) The effect of nicotine or DMPP treatment on AMJ2-C11 cells was tested on TNF-α, IL-10 mRNA expression by RT-PCR. These cytokines are involved in the development of pulmonary inflammatory diseases such as HP, asthma and sarcoidosis (52-55). […] Reference is made to FIG. 3 where results are expressed as a % of expression, 100% being attributed to the LPS alone group. The intensity of the band was obtained by dividing the intensity of the TNF-α band by that of β-actin. […] Reference is made to FIG. 4 where results are expressed as described in FIG. 5.

IL-4 mRNA expression = IL-4 mRNA expression induced by a 24 h LPS stimulation; assay type: cell-based; details: LPS stimulation 24 h, 40 μM
Protocol: The effect of agonist treatment on mRNA expression of IL-4, a cytokine that is well known to be involved in the development of asthma, was also tested (53). […] Cells were treated with different doses (40 to 160 μM for both nicotine and DMPP).

[5] = test system: CD80 expression on AMJ2-C11 cells; experiment: B7 (CD80) molecule expression on AMJ2-C11 cells; assay type: cell-based, mouse; details: LPS (0.1 μg/ml) stimulated, 40 μM for 48 h; LPS alone 38%
Protocol: The effects of nicotine and DMPP on B7 (CD80) molecule expression were tested in vitro. AMJ2-C11 cells (mouse alveolar macrophages, from the ATCC) were incubated with 40 μM nicotine or DMPP and stimulated with LPS (0.1 μg/ml) or SR antigen (50 μg/ml) for 48 hours.

[6] = test system: CD86 expression on alveolar macrophages; experiment: CD86 expression in SR-stimulated BAL cells of a normal patient; assay type: cell-based, human; details: SR-stimulated alveolar macrophages
Protocol: A broncho-alveolar lavage was performed on a normal patient, and alveolar macrophages were isolated.

blood eosinophils = experiment: Blood eosinophil transmigration through an artificial basement membrane (Matrigel coated chemotaxis chamber); assay type: cell-based
From the text: Infiltration of eosinophils and other inflammatory cells into lung tissues is an important feature of asthma and the cause of airway inflammation and hyper-responsiveness. The passage of inflammatory cells from the circulation to the lung involves migration through the vascular endothelium, the basement membrane, and extra-cellular matrix components. Inflammatory cells cross the basement membrane by producing proteinases. In these preliminary in vitro experiments, the effects of various nicotinic agonists on the migration of purified blood eosinophils through an artificial basement membrane (Matrigel® coated chemotaxis chamber) were investigated. […] Results are expressed as a percentage of inhibition (agonists-treated cells) compared to the control condition without the agonists.

[7] = test system: collagen 1A mRNA expression by normal human lung fibroblasts; experiment: Collagen A1 gene expression by RT-PCR in primary normal lung fibroblasts; assay type: cell-based
Protocol: Asthma is characterized by airway structural changes, including sub-epithelial collagen deposition, that may be a cause for the chronicity of the disease. An imbalance between collagen synthesis and its degradation by fibroblasts may be involved in this process (56). In preliminary experiments, we investigated the effects of nicotinic agonists on collagen A1 synthesis produced by primary normal fibroblasts. Collagen A1 gene expression was evaluated by RT-PCR.
The results are expressed percentage gene expression in agonists treated cells compared to non-treated cells.

[8] = test system: IL-10 mRNA expression in AMJ2-C11 cells; experiment: IL-10 mRNA expression by RT-PCR in AMJ2-C11 cells; assay type: cell-based, mouse
Protocol: as §1

[9] = test system: LTC4 release by blood eosinophils; experiment: LTC4 production by PAF-stimulated blood eosinophils (enzyme immunoassay); assay type: cell-based, human; details: eosinophils pre-incubated 18 hours with analog, PAF stimulated; untreated 1725.80
Protocol: Blood eosinophils, the most increased inflammatory cells in asthma, were isolated by negative selection using bead-conjugated anti-CD16 monoclonal antibody and magnetic activating cell sorting. Cells were pre-Incubated for 18 hours with the various DMPP analogs and then stimulated with 1 µM platelet-activating factor (PAF) to produce LTC4 which was measured by enzyme immunoassay.
Human blood eosinophils were isolated from blood of asthmatic patients, stimulated in vitro with platelet activating factor (PAF) to produce large amounts of LTC4, and treated or not with 80 μM ASM-002.

[10] = test system: TNF release by human blood monocytes; experiment: cells; assay type: cell-based; details: monocytes of asthmatic patients, LPS 100 ng/ml 18 h; n=8 to 10
Protocol: Human monocytes were isolated from the blood of asthmatic patients by Ficoll-paque density gradient, let to adhere to tissue culture plates and stimulated with LPS (100 ng/ml) for 18 hours at 37° C. with or without increasing concentrations of nicotine. The release of TNF, a potent pro-inflammatory mediator, was measured in the cell culture supernatant by the ELISA method. Results are expressed as a percentage release from LPS-stimulated untreated cells (FIG. 28).
Tumor necrosis factor (TNF) is a mediator released in inflammatory states.
Human blood monocytes were isolated by Ficoll-paque density gradient, let to adhere to tissue culture plates and stimulated with LPS (100 ng/ml) for 18 hours at 37° C. with or without increasing concentrations of nicotine analogues.

[11] = reference (40); cited from earlier work
[12] = purified blood eosinophils, Matrigel

With C[C@]12C=CC(=O)C=C1CC[C@@H]1[C@@H]2C(=O)C[C@@]2(C)[C@H]1CC[C@]2(O)C(=O)CO [prednisone] the “dogs with decreased lung resistance / improved hyper-responsiveness” value [1] was “None of the 12 dogs”.
With CN1CCCC1c1cccnc1 (stereo not shown) [nicotine, Nicotine] the “expression of IFN-γ mRNA vs cells from non-treated animals” value (IFN-γ mRNA) was “significantly lower expression”, the “effect on SR-induced inflammation (BAL cells)” value ([2]; intra-nasal every 6 h, 24 h after SR, DMPP 0.5 mg/kg, nicotine 0.5 mg/kg, epibatidine 2 μg/kg) was “marked inhibitory effect; also recorded: significant inhibitory effect” and the “lymphocyte population in BAL” value [3] was “decrease in the lymphocyte population”. The “number of total cells in bronchoalveolar lavage (BAL)” value [3] was “significantly reduced”, the “reduction of TNF-α mRNA expression” value ([4]; LPS stimulated 24 h, 40 μM) was 98% and the “effect on TNF-α mRNA expression” value ([4]; SR-stimulated 24 h, only the 160 μM dose (80 and 160 μM tested)) was “had an effect on mRNA expression”. The “reduction of IL-4 mRNA expression” value (IL-4 mRNA expression) was no more than 90%, the “reduction of IL-4 mRNA expression” value (IL-4 mRNA expression; listed as Nicotine) was “up to 92%” and the “percentage of expression of CD80” value [5] was 20%. The “expression of CD86 relative to non-treated cells” value [6] was “about half of the expression”, the “inhibition of eosinophil transmigration” value (blood eosinophils; [12]) was “reduce blood eosinophil transmigration” and the “collagen A1 gene expression” value ([7]; 1 and 10 μM) was “slight inhibitory effect”. The “collagen A1 gene expression” value ([7]; higher concentrations (above 10 μM)) was “no effects”, the “reduction of IL-10 mRNA expression” value ([8]; LPS stimulated 24 h, 40 μM) was 88% and 87% and the “drop of IL-10 mRNA expression” value ([8]; SR-stimulated 24 h, 160 μM) was 60%.
With O=c1cccc2n1C[C@@H]1CNC[C@H]2C1 [cytisine] the “inhibition of eosinophil transmigration” value (blood eosinophils) was “reduce blood eosinophil transmigration”.
Molecule CC[N+]1(C)CCN(c2ccccc2)CC1 [ASM-003] has an LTC4 [9] of 613.90 pg/mL.
In the case of CNC1(C)C2CCC(C2)C1(C)C (stereo not shown) [mecamylamine], the “effect of the antagonist on the DMPP inhibition of eosinophil transmigration” value (blood eosinophils; together with DMPP) is reported as “reverses the effect of DMPP”.
With CC[N+]1(CC)CCN(c2ccccc2)CC1 [ASM-005] the “effect on TNF release” value [10] was “Except for ASM-005, all analogs tested had an inhibitory effect”.
C[N+]1(C)CCCN(c2ccccc2)CC1 (as salt: iodide) [ASM-002, 1,1-dimethyl-4-phenylhomopiperazinium iodide] gave a melting point of 158 to 160 °C.
For Clc1ccc(C2CC3CCC2N3)cn1 (stereo not shown) [epibatidine, Epibatidine], the “effect on SR-induced inflammation (BAL cells)” value ([2]; mouse, in vivo) is listed as “marked inhibitory effect; also recorded: significant inhibitory effect”, the “inhibition of eosinophil transmigration” value (blood eosinophils; [12]) is listed as “reduce blood eosinophil transmigration” and the “analgesic potential, times that of morphine” value [11] is listed as “two hundred”. For the same molecule, the “collagen A1 gene expression” value ([7]; primary normal fibroblasts, RT-PCR) was “inhibitory effect is also observed”.
